Experimental data taken from patent publication US7713994B2 (Wyeth LLC, priority 2005, dated 2010).
Read-outs that look alike come from different tables or passages of the source.

How the values were obtained:
BT474 = test: Cytotoxicity assay (SRB), BT474; format: cell-based
Procedure, shortened: (§1)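 Protein staining with sulforhodamine B after cold TCA fixation served as the survival endpoint (A540, relative to untreated cells). Before staining, cells were incubated with compound at 37 °C, 7% CO2 for 3 days, or 6 days for BT474.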

cyclin E/CDK2 enzyme = target: T1, cyclin E/CDK2 enzyme (Homo sapiens, UniProt P24941); test: CDK2 ELISA kinase assay (phospho-Rb ser 795 detection); format: biochemical
T1 construct: made in house; host or cells: Sf9 insect cells, recombinant baculovirus
Method: (§2) • 1. High-binding ELISA microtiter plates (Costar) were coated with 40 μl of the kinase substrate (GST fusion of C-terminal fragment of the retinoblastoma susceptibility gene product) diluted to 10 μg/ml in tris-buffered saline (TBS), overnight at 4° C. • 2. Non-specific binding sites were blocked for 1 hour at 4° C. with Superblock in TBS (Pierce), and the plates rinsed with water. • 3. For the screen, 1.5 μl of test compound (200 μg/ml stock in 20% DMSO/20 mM HEPES, pH 7.5) was added to each well. Final dose of the test compound in the assay was 10 ug/ml. […] The kinase reaction (30 μl) was dispensed into each well. Reactions contained 200 μM ATP, 0.5 mg/ml bovine serum albumin (BSA; Sigma), and 0.5 μl partially purified cyclin D1/cdk 4 enzyme*. The enzyme complex is expressed in insect cells (Sf9) infected with recombinant baculovirus and partially purified using ammonium sulfate fractionation. Reaction volumes were adjusted to 30 μl with kinase assay buffer (50 mM HEPES, pH 7.5, 10 mM MgCl2, 5% glycerol, 10 mM 2-mercaptoethanol). • *: For CDK2 assay, 1.0 μl cyclin E/CDK2 enzyme (diluted 1:1000 in kinase assay buffer) was used. The enzyme is isolated from insect cells (Sf9) infected with recombinant baculovirus and partially purified using ammonium sulfate fractionation. For CDK1 assay, 0.08 μl cyclin B/CDK1 enzyme [New England BioLabs; the enzyme is isolated from insect cells (Sf9) infected with recombinant baculovirus carrying human cdc 2 and human cyclin B] was used.
(§3) […] • 5. Plates were incubated at 30° C. for 1 hour. • 6. The reaction mixture was removed by aspiration and replaced with 250 μl TBS containing 0.1% Tween-20 and 5% nonfat dry milk (blocking buffer). The plates were incubated at 4° C. for 1 hour. • 7. The blocking buffer was removed and replaced with 50 μl of the primary antibody [anti-phospho-Rb ser 795 (New England BioLabs) diluted 1:1000 in blocking buffer]. Incubation was at 4° C. for 16-20 hours. • 8. The wells were rinsed 3 times with 250 μl of TBS containing 0.1% Tween-20 followed by the addition of 50 μl of secondary antibody [anti-rabbit IgG conjugated to horseradish peroxidase (Amersham Life Science) diluted 1:1000 in blocking buffer]. • 9. After a 1 hour incubation at room temperature, the wells were rinsed 3 times with 250 μl of TBS/0.1% Tween 20. • 10. TMB (3,3′,5,5′-tetramethylbenzidine dihydrochloride) substrate solution (100 μl; Pierce) was added to each well and the color development reaction allowed to proceed 5-10 minutes at room temperature with shaking. The reaction was stopped by the addition of 2N sulfuric acid (100 μl) and the absorbance values read at 450 nm in a microplate reader (Molecular Devices). Analysis of Results: • 1. The percentage of the absorbance value in wells containing the test compound relative to control wells (no test agent) was determined. • 2. IC50 values of selected compounds were determined from inhibition curves, after subtracting background values (no substrate).

cyclin B/CDK1 enzyme = target: T2, cyclin B/CDK1 enzyme (Homo sapiens, UniProt P06493); test: CDK1 ELISA kinase assay (phospho-Rb ser 795 detection); format: biochemical
T2 construct: purchased New England BioLabs; host or cells: Sf9 insect cells, recombinant baculovirus
Method: as §2, §3

LoVo = test: Cytotoxicity assay (SRB), LoVo; format: cell-based; settings: Homo sapiens, LoVo, 72 h, LoVo cells, SRB, read-out: In Vitro Cellular Activity IC50 LOVO
Procedure, shortened: as §1

cyclin D1/cdk 4 enzyme = target: T3, cyclin D1/cdk 4 enzyme (Homo sapiens, UniProt P11802); test: CDK4 ELISA kinase assay (phospho-Rb ser 795 detection); format: biochemical
T3 construct: made in house; host or cells: Sf9 insect cells, recombinant baculovirus
Procedure, shortened: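 GST-Rb C-terminal fragment coated on plates; partially purified Sf9-expressed cyclin D1/CDK4, cyclin E/CDK2 or cyclin B/CDK1 with 200 μM ATP, pH 7.5 HEPES/MgCl2 buffer, 1 h at 30 °C; screen compound final 10 μg/ml. Phospho-Rb Ser795 detected by antibody ELISA (TMB, A450); % of control, IC50 from background-subtracted inhibition curves.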

HCT-116 = test: Cytotoxicity assay (SRB), HCT-116; format: cell-based; settings: Homo sapiens, HCT-116, 72 h, HCT116 cells, 3 days, SRB; read-out: In Vitro Cellular Activity IC50 HCT116
Procedure, shortened: as §1

[1] = Homo sapiens, BT-474, 144 h, BT474 cells, SRB, 6 days; read-out: In Vitro Cellular Activity IC50 BT474
[2] = In Vitro Enzyme Assays, read-out: CDK2 IC50
[3] = In Vitro Enzyme Assays, read-out: CDK1 IC50
[4] = In Vitro Enzyme Assays, 200 μM ATP, read-out: CDK4 IC50
[5] = In Vitro Enzyme Assay, cyclin E/CDK2, read-out: CDK2 IC50
[6] = In Vitro Enzyme Assay, cyclin B/CDK1, read-out: CDK1 IC50
[7] = In Vitro Enzyme Assay, cyclin D1/cdk 4, read-out: CDK4 IC50

T2 sequence (P06493 whole entry): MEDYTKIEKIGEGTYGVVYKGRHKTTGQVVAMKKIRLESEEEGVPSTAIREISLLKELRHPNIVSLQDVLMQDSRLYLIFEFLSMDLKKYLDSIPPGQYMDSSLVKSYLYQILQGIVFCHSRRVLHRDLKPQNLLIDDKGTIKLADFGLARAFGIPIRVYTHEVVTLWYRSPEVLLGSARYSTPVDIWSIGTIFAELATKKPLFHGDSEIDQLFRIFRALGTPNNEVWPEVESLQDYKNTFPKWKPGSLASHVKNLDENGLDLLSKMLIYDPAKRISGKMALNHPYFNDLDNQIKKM
T2 sequence (P14635 whole entry partner): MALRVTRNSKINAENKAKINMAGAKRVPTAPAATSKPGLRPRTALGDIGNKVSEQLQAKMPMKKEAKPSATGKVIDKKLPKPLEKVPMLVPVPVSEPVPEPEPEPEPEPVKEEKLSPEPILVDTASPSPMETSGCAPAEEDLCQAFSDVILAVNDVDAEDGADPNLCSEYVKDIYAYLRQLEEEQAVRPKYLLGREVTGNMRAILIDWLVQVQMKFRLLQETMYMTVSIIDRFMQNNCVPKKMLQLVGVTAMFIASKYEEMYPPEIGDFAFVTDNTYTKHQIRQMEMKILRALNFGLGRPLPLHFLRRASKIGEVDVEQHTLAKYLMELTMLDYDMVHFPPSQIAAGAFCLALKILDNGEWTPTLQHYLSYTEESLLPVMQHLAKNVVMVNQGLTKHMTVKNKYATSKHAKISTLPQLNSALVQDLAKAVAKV
T3 sequence (P11802 whole entry, species assumed): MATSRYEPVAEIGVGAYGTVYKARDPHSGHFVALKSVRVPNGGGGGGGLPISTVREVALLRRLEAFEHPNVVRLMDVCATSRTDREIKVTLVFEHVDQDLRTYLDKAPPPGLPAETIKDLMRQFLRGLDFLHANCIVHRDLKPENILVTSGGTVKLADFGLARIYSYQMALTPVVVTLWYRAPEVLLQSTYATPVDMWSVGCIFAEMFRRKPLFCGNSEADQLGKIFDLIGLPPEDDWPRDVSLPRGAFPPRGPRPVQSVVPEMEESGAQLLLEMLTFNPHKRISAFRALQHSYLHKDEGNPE
T3 sequence (P24385 whole entry partner, species assumed): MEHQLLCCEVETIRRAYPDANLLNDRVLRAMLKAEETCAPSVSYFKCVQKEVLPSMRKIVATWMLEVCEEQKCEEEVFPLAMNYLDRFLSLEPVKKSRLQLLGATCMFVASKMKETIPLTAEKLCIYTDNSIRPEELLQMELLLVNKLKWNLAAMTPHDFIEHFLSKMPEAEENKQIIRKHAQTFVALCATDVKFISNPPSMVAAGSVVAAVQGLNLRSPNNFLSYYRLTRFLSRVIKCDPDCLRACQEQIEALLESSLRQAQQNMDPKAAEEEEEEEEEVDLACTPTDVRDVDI

Molecule | IC50 (cyclin E/CDK2 enzyme; [5]) | IC50 (cyclin B/CDK1 enzyme; [6]) | IC50 (cyclin D1/cdk 4 enzyme; [7]) | further results
O=C1NC(=O)c2ccc(Nc3ccccc3)cc2/C1=C/Nc1ccc(CN2CCCCC2)cc1 [Example 128, (4Z)-6-Anilino-4-({[4-(piperidin-1-ylmethyl)phenyl]amino}methylene)isoquinoline-1,3(2H,4H)-dione] |  |  |  | IC50 (BT474; [1]): 3.1 µM; IC50 (cyclin E/CDK2 enzyme; [2]): > 50 µM; IC50 (cyclin B/CDK1 enzyme; [3]): > 50 µM; IC50 (LoVo; three days): 2.1 µM; IC50 (cyclin D1/cdk 4 enzyme; [4]): 1.8 µM
C[C@@H]1CN(c2ccc(N/C=C3\C(=O)NC(=O)c4ccc(I)cc43)cc2)C[C@H](C)N1C [Example 234, (4Z)-6-Iodo-4-[({4-[(3R,5S)-3,4,5-trimethylpiperazin-1-yl]phenyl}amino)methylene]-isoquinoline-1,3(2H,4H)-dione] |  |  |  | IC50 (BT474; [1]): 2.5 µM; IC50 (cyclin E/CDK2 enzyme; [2]): > 50 µM; IC50 (cyclin B/CDK1 enzyme; [3]): > 50 µM; IC50 (LoVo; three days): 3.4 µM; IC50 (cyclin D1/cdk 4 enzyme; [4]): 2.8 µM
O=C1NC(=O)c2ccccc2C1=CNC(Cc1ccc(O)c(O)c1)C(=O)O (stereo not drawn) [Example 567, 3-(3,4-Dihydroxy-phenyl)-2-[(1,3-dioxo-2,3-dihydro-1H-isoquinolin-4-ylidenemethyl)-amino]-propionic acid] | 16.2 µM | 17.7 µM | 11.9 µM | 
NS(=O)(=O)c1ccc(CNC=C2C(=O)NC(=O)c3ccc(C=Cc4ccncc4)cc32)cc1 [Example 653, 4-({[1,3-Dioxo-6-(2-pyridin-4-yl-vinyl)-2,3-dihydro-1H-isoquinolin-4-ylidenemethyl]-amino}-methyl)-benzenesulfonamide] | 45.5 µM | > 50 µM | 0.21 µM | 
NS(=O)(=O)c1ccc(CNC=C2C(=O)NC(=O)c3ccc(C=Cn4ccnc4)cc32)cc1 [Example 658, 4-({[6-(2-Imidazol-1-yl-vinyl)-1,3-dioxo-2,3-dihydro-1H-isoquinolin-4-ylidenemethyl]-amino}-methyl)-benzenesulfonamide] | 23.1 µM | > 50 µM | 0.19 µM | 
O=C1NC(=O)c2ccc(C=Cc3ccncc3)cc2C1=CNCc1ccc(O)c(O)c1 [Example 663, 4-[(3,4-Dihydroxy-benzylamino)-methylene]-6-(2-pyridin-4-yl-vinyl)-4H-isoquinoline-1,3-dione] | 6.3 µM | > 50 µM | 0.01 µM | 
O=C(O)C=Cc1ccc(-c2ccc3c(c2)C(=CNCc2ccc(O)c(O)c2)C(=O)NC3=O)cc1 [Example 788, 3-(4-{4-[(3,4-Dihydroxy-benzylamino)-methylene]-1,3-dioxo-1,2,3,4-tetrahydro-isoquinolin-6-yl}-phenyl)-acrylic acid] | 17.6 µM | 17.6 µM | 0.2 µM | 
O=C(O)C=Cc1cccc(-c2ccc3c(c2)C(=CNCc2ccc(O)c(O)c2)C(=O)NC3=O)c1 [Example 789, 3-(3-{4-[(3,4-Dihydroxy-benzylamino)-methylene]-1,3-dioxo-1,2,3,4-tetrahydro-isoquinolin-6-yl}-phenyl)-acrylic acid] | 27.7 µM | > 50 µM | 0.4 µM | 
COc1ccc(NC=C2C(=O)NCc3cc(Br)ccc32)cc1 [Example 841, 7-Bromo-4-[(4-methoxy-phenylamino)-methylene]-1,4-dihydro-2H-isoquinolin-3-one] | 25.3 µM | > 50 µM |  | IC50 (BT474; Homo sapiens, BT-474, 144 h, BT474 cells, 6 days, SRB; read-out: In Vitro Cellular Activity IC50 BT474): 47.8 µM; IC50 (HCT-116): 36 µM; IC50 (LoVo; 3 days): 34 µM
(4Z)-6-Bromo-4-{[(3-hydroxy-4-methoxybenzyl)amino)methylene}isoquinoline-1,3(2H,4H-dione [Example 50] |  |  |  | IC50 (cyclin E/CDK2 enzyme; [2]): > 50 µM; IC50 (cyclin B/CDK1 enzyme; [3]): > 50 µM; IC50 (cyclin D1/cdk 4 enzyme; [4]): 0.03 µM

Continued, in another order:

IC50 (cyclin E/CDK2 enzyme; [5]) | IC50 (cyclin B/CDK1 enzyme; [6]) | IC50 (cyclin D1/cdk 4 enzyme; [7]) | Molecule | further results
7.7 µM | 12.3 µM | 0.57 µM | N#Cc1ccc(-c2ccc3c(c2)C(=CNCc2ccc(S(N)(=O)=O)cc2)C(=O)NC3=O)cc1 [Example 755, 4-({[6-(4-Cyano-phenyl)-1,3-dioxo-2,3-dihydro-1H-isoquinolin-4-ylidenemethyl]-amino}-methyl)-benzenesulfonamide] | 
13.8 µM | 18.5 µM | 0.09 µM | O=C1NC(=O)c2ccc(-c3ccc(C(=O)O)cc3)cc2C1=CNCc1ccc(O)c(O)c1 [Example 770, 4-{4-[(3,4-Dihydroxy-benzylamino)-methylene]-1,3-dioxo-1,2,3,4-tetrahydro-isoquinolin-6-yl}-benzoic acid] | 
14.1 µM | > 50 µM | 0.2 µM | CC(=O)c1ccc(-c2ccc3c(c2)C(=CNCc2ccc(O)c(O)c2)C(=O)NC3=O)cc1 [Example 775, 6-(4-Acetyl-phenyl)-4-[(3,4-dihydroxy-benzylamino)-methylene]-4H-isoquinoline-1,3-dione] | 
27.1 µM | 27.1 µM | 0.81 µM | O=C(O)CCc1ccc(-c2ccc3c(c2)C(=CNCc2ccc(O)c(O)c2)C(=O)NC3=O)cc1 [Example 819, 3-(4-{4-[(3,4-Dihydroxy-benzylamino)-methylene]-1,3-dioxo-1,2,3,4-tetrahydro-isoquinolin-6-yl}-phenyl)-propionic acid] | 
10.3 µM | 2.7 µM | 0.79 µM | CN1CCN(c2ccc(NC=C3C(=O)NC(=O)c4ccc(-c5ccc6c(ccn6CC(N)=O)c5)cc43)cc2)CC1 [Example 851, 2-[5-(4-{[4-(4-Methyl-piperazin-1-yl)-phenylamino]-methylene}-1,3-dioxo-1,2,3,4-tetrahydro-isoquinolin-6-yl)-indol-1-yl]-acetamide] | 
> 50 µM | > 50 µM | 0.12 µM | CN1CCN(c2ccc(NC=C3C(=O)NC(=O)c4ccc(-c5ccn(CC(N)=O)c5)cc43)cc2)CC1 [Example 853, 2-[3-(4-{[4-(4-Methyl-piperazin-1-yl)-phenylamino]-methylene}-1,3-dioxo-1,2,3,4-tetrahydro-isoquinolin-6-yl)-pyrrol-1-yl]-acetamide] | 
> 50 µM | > 50 µM | 0.61 µM | CCN(CC)CCn1ccc(-c2ccc3c(c2)C(=CNc2ccc(N4CCN(C)CC4)cc2)C(=O)NC3=O)c1 [Example 854, 6-[1-(2-Diethylamino-ethyl)-1H-pyrrol-3-yl]-4-{[4-(4-methyl-piperazin-1-yl)-phenylamino]-methylene}-4H-isoquinoline-1,3-dione] | 
